Laboratory results: ChEMBL document CHEMBL1149176, “(2R)-2-ethylchromane-2-carboxylic acids: discovery of novel PPARalpha/gamma dual agonists as antihyperglycemic and hypolipidemic agents” (J Med Chem, 2004)

Legend:
[1] = molecular target: T1, Peroxisome proliferator-activated receptor gamma (Homo sapiens, UniProt P37231); experiment: In vitro binding affinity for human peroxisome proliferator activated receptor gamma using scintillation proximity assay (SPA)
T1 sequence (P37231 whole entry): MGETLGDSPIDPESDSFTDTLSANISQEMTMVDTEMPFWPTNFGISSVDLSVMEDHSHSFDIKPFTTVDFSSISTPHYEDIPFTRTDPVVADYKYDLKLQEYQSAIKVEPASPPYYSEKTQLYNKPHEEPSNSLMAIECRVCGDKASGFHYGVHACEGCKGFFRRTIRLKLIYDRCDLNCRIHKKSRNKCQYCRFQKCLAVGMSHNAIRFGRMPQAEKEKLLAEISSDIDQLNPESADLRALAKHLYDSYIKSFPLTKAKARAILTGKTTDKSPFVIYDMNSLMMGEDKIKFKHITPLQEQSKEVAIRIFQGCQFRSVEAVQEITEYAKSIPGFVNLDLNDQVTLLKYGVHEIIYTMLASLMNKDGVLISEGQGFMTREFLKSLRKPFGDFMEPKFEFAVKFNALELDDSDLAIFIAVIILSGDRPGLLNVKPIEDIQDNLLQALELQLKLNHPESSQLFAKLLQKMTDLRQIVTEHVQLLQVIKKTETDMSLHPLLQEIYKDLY

[2] = molecular target: T2, Peroxisome proliferator-activated receptor alpha (Homo sapiens, UniProt Q07869); experiment: In vitro potency of PPAR gene activation against human Peroxisome proliferator activated receptor alpha using chimeric Gal4-hPPAR transactivation assay (TA)
T2 sequence (Q07869 whole entry): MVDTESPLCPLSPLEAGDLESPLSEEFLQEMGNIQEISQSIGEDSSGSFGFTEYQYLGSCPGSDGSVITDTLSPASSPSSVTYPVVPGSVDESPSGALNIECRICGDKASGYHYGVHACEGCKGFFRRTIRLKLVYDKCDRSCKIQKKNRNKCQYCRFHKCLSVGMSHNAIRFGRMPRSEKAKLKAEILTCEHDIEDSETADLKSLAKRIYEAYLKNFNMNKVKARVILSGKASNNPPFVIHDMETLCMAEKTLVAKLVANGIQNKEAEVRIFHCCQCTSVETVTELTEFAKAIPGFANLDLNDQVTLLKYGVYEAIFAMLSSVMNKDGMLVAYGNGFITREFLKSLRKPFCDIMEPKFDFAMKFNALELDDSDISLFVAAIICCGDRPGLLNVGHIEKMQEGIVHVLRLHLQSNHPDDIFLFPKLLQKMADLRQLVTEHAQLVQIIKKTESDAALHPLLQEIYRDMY

[3] = molecular target: T2, Peroxisome proliferator-activated receptor alpha
Description: In vitro binding affinity for human peroxisome proliferator activated receptor alpha using scintillation proximity assay (SPA)

[4] = molecular target: T3, Peroxisome proliferator-activated receptor delta (Homo sapiens, UniProt Q03181)
T3 sequence (Q03181 whole entry): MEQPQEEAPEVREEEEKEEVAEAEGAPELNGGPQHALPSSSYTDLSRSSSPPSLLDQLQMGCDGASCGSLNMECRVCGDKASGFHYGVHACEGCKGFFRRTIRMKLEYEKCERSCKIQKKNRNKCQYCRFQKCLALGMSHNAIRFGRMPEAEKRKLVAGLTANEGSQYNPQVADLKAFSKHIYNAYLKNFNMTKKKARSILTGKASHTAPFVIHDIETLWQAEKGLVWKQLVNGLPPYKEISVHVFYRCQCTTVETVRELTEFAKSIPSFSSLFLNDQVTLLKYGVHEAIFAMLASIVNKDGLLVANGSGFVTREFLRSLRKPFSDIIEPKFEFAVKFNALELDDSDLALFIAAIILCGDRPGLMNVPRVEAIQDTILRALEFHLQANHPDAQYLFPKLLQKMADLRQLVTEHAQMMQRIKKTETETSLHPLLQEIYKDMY

[5] = molecular target: T1, Peroxisome proliferator-activated receptor gamma
Description: In vitro potency of PPAR gene activation against human PPAR gamma receptor using chimeric Gal4-hPPAR transactivation assay (TA)

[6] = molecular target: T2, Peroxisome proliferator-activated receptor alpha; experiment: In vitro transcriptional activation by human PPAR alpha Gal4 chimera; Not active
Cricetinae gen. sp. [7] = experiment: In vivo percent change in triglyceride in hamsters at 100 mg/kg; format: functional, Cricetulus griseus
Cricetinae gen. sp. [8] = experiment: In vivo serum cholesterol in hamsters at 100 mg/kg; format: functional, Cricetulus griseus
Cricetinae gen. sp. [9] = experiment: In vivo percent change in serum cholesterol in hamsters at 100 mg/kg; format: functional, Cricetulus griseus
Canis familiaris = experiment: In vivo percent change in serum cholesterol in dogs at 50 mg/kg; format: functional, Canis lupus familiaris
[10] = molecular target: T1, Peroxisome proliferator-activated receptor gamma; experiment: In vitro transcriptional activation by human PPAR gamma Gal4 chimera
[11] = molecular target: T1, Peroxisome proliferator-activated receptor gamma; remark: listed apart in the source
Description: In vitro binding affinity for human PPAR gamma receptor using scintillation proximity assay (SPA)

IC50 [1] | EC50 [2] | IC50 [3] | IC50 [4] | EC50 [5] | EC50 [10] | IC50 [11] | Compound | EC50 [6] | Change (Cricetinae gen. sp. [7]) | Activity (Cricetinae gen. sp. [8]) | Change (Cricetinae gen. sp. [9]) | Change (Canis familiaris)
1400 nM | 210 nM | 4000 nM | > 50000 nM | 670 nM |  |  | CCCc1cc(Oc2ccc(Cl)cc2)ccc1OCCCOc1ccc2c(c1)OC(CC)(C(=O)O)CC2 (stereo not given) |  |  |  |  | 
 |  |  | > 50000 nM |  |  |  | CC[C@@]1(C(=O)O)CCc2ccc(OCCCOc3ccc(Oc4ccc(F)cc4)cc3Cl)cc2O1 |  |  |  |  | 
 |  |  |  |  |  |  | CC(C)OC(=O)C(C)(C)Oc1ccc(C(=O)c2ccc(Cl)cc2)cc1 [FENOFIBRATE] |  | -44% | 67 mg/dL | -38% | -16.3%
440 nM | 30 nM | 360 nM | > 50000 nM | 1000 nM |  |  | CCCc1cc(Oc2ccccc2)ccc1OCCCOc1ccc2c(c1)OC(CC)(C(=O)O)CC2 (stereo not given) |  |  |  |  | 
980 nM | 3000 nM | 1500 nM | 170 nM | 7300 nM |  |  | CCCc1cc(Oc2ccccc2)ccc1OCCCOc1ccc2c(c1)OC(C(=O)O)CC2 (stereo not given) |  |  |  |  | 
1400 nM | 80 nM | 120 nM | > 15000 nM |  | 360 nM |  | CC1(C(=O)O)CCc2ccc(OCCCOc3ccc(Oc4ccccc4)cc3Cl)cc2O1 (stereo not given) |  |  |  |  | 
370 nM | 120 nM | 2100 nM | > 50000 nM | 830 nM |  |  | CCCc1cc(Oc2ccccc2)ccc1OCCCOc1ccc2c(c1)OC(CCC)(C(=O)O)CC2 (stereo not given) |  |  |  |  | 
 | 30 nM | 120 nM | > 15000 nM | 160 nM |  | 690 nM | CCC1(C(=O)O)CCc2ccc(OCCCOc3ccc(Oc4ccccc4)cc3Cl)cc2O1 (stereo not given) |  |  |  |  | 
1200 nM | 10 nM | 970 nM | > 50000 nM | 750 nM |  |  | CCCc1cc(Oc2ccc(F)cc2)ccc1OCCCOc1ccc2c(c1)OC(CC)(C(=O)O)CC2 (stereo not given) |  |  |  |  | 

Compound | IC50 [1] | EC50 [2] | IC50 [3] | IC50 [4] | EC50 [5] | EC50 [10] | IC50 [11] | EC50 [6] | Change (Cricetinae gen. sp. [7]) | Activity (Cricetinae gen. sp. [8]) | Change (Cricetinae gen. sp. [9]) | Change (Canis familiaris)
CCCc1cc(Oc2ccccc2)ccc1OCCCCOc1ccc2c(c1)CCC(C)(C(=O)O)O2 (stereo not given) | 2300 nM |  | 2000 nM | > 50000 nM | 1200 nM |  |  | Not Active |  |  |  | 
CCCc1cc(Oc2ccccc2)ccc1OCCCCOc1ccc2c(c1)CCC(C(=O)O)O2 (stereo not given) | 3000 nM |  | 5800 nM | > 50000 nM | 2500 nM |  |  | Not Active |  |  |  | 
